We go through 26 compounds from US11078198B2 (BRISTOL-MYERS SQUIBB COMPANY, priority 2017, dated 2021).

Broadly, the EC50 is the concentration needed to bring the measured effect to its halfway point. A low value points to a more potent agent.

The experiment deals with T1, human FXR (Homo sapiens, UniProt Q96RI1).
T1 construct: expressed in transfected cells; host or cells: HEK293 cells stably carrying a 5xGal4-response-element firefly luciferase reporter, transiently transfected with pcDNA3.1-Gal4-FXR
T1 sequence (Q96RI1 262-486 limits assumed): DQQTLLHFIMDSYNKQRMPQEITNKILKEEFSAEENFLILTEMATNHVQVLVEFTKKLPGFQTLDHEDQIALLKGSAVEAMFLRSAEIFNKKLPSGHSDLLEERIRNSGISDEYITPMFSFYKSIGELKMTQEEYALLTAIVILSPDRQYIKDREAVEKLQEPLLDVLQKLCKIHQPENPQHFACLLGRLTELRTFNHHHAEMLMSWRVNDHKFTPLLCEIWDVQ
Description: transient human FXR/Gal4-luciferase reporter assay. In kind it is cell-based. The conditions noted are these: Gal4-hFXR transfected HEK293 reporter cells; relative to 8 μM GW-4064. Put shortly:
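HEK293 cells stably carrying a 5×Gal4-response-element firefly luciferase reporter, transiently transfected overnight with a CMV-driven Gal4 DNA-binding domain/human FXR ligand-binding domain fusion.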
Turning to `Cc1nc(C(=O)O)c2ccc(N3CCC4(C=C(c5c(-c6c(Cl)cccc6Cl)noc5C5CC5)C4)CC3)cn12` [Example 127, 6-(2-(5-Cyclopropyl-3-(2,6-dichlorophenyl)isoxazol-4-yl)-7-azaspiro[3.5]non-1-en-7-yl)-3-methylimidazo[1,5-a]pyridine-1-carboxylic acid], the half-maximal effective concentration (EC50) turned out to be 267 nM.

The compound `Cn1c(C(=O)O)cc2ccc(N3CCC4(C=C(c5c(-c6c(Cl)cccc6Cl)noc5C5CC5)C4)CC3)cc21` [Example 128, 6-(2-(5-Cyclopropyl-3-(2,6-dichlorophenyl)isoxazol-4-yl)-7-azaspiro[3.5]non-1-en-7-yl)-1-methyl-1H-indole-2-carboxylic acid] yielded a half-maximal effective concentration (EC50) of 287 nM. This EC50 and that of the compound before are within 1.5-fold of each other.

Consider `O=C(O)c1cc2ccc(N3CCC4(C=C(c5c(-c6c(Cl)cccc6Cl)noc5C5CC5)C4)CC3)cc2cn1` [Example 129, 7-(2-(5-Cyclopropyl-3-(2,6-dichlorophenyl)isoxazol-4-yl)-7-azaspiro[3.5]non-1-en-7-yl)isoquinoline-3-carboxylic acid], for which the EC50 is 341 nM. This EC50 and that of the compound before are within 1.5-fold of each other.

In turn, `O=C(O)COc1cnc2ccc(N3CCC4(C=C(c5c(-c6c(Cl)cccc6Cl)noc5C5CC5)C4)CC3)cc2n1` [Example 130, 2-((7-(2-(5-Cyclopropyl-3-(2,6-dichlorophenyl)isoxazol-4-yl)-7-azaspiro[3.5]non-1-en-7-yl)quinoxalin-2-yl)oxy)acetic acid] gave an EC50 of 373 nM. The EC50 values of the last two compounds are within 1.5-fold of each other.

The compound `C[Si](C)(C)CCOCn1cc(C(=O)O)c2ccc(N3CCC4(C=C(c5c(-c6c(Cl)cccc6Cl)noc5C5CC5)C4)CC3)cc21` [Example 131, 6-(2-(5-Cyclopropyl-3-(2,6-dichlorophenyl)isoxazol-4-yl)-7-azaspiro[3.5]non-1-en-7-yl)-1-((2-(trimethylsilyl)ethoxy)methyl)-1H-indole-3-carboxylic acid] registered an EC50 of 445 nM.

`Cc1c(N2CCC3(C=C(c4c(-c5c(Cl)cccc5Cl)noc4C4CC4)C3)CC2)ccc2cc(C(=O)O)cnc12` [Example 132, 7-(2-(5-Cyclopropyl-3-(2,6-dichlorophenyl)isoxazol-4-yl)-7-azaspiro[3.5]non-1-en-7-yl)-8-methylquinoline-3-carboxylic acid] came in with a 50% effective concentration (EC50) of 958 nM. Against the preceding compound, the EC50 is about 2.2-fold higher.

Turning to `Cn1nc(N2CCC3(C=C(c4c(-c5c(Cl)cccc5Cl)noc4C4CC4)C3)CC2)c2ccc(C(=O)O)cc21` [Example 133, 3-(2-(5-Cyclopropyl-3-(2,6-dichlorophenyl)isoxazol-4-yl)-7-azaspiro[3.5]non-1-en-7-yl)-1-methyl-1H-indazole-6-carboxylic acid], the half-maximal effective concentration (EC50) was 1170 nM.

`Cn1nc(N2CCC3(C=C(c4c(-c5ccccc5C(F)(F)F)noc4C4CC4)C3)CC2)c2ccc(C(=O)O)cc21` [Example 134, 3-(2-(5-Cyclopropyl-3-(2-(trifluoromethyl)phenyl)isoxazol-4-yl)-7-azaspiro[3.5]non-1-en-7-yl)-1-methyl-1H-indazole-6-carboxylic acid] had an EC50 of 3310 nM. This EC50 is about 2.8-fold higher than that of the compound before.

For `O=C(O)c1ccn2nc(N3CCC4(C=C(c5c(-c6ccccc6C(F)(F)F)noc5C5CC5)C4)CC3)ncc12` [Example 135, 2-(2-(5-Cyclopropyl-3-(2-(trifluoromethyl)phenyl)isoxazol-4-yl)-7-azaspiro[3.5]non-1-en-7-yl)pyrrolo[2,1-f][1,2,4]triazine-5-carboxylic acid], the EC50 turned out to be 87 nM.

As to `O=C(O)c1cc(F)c2nc(N3CCC4(C=C(c5c(-c6c(F)cccc6Cl)noc5C5CC5)C4)CC3)sc2c1` [Example 136, 2-(2-(3-(2-Chloro-6-fluorophenyl)-5-cyclopropylisoxazol-4-yl)-7-azaspiro[3.5]non-1-en-7-yl)-4-fluorobenzo[d]thiazole-6-carboxylic acid], the EC50 is 37 nM.

As to `O=C(O)c1cc(F)c2nc(N3CCC4(C=C(c5c(-c6c(F)cccc6F)noc5C5CC5)C4)CC3)sc2c1` [Example 137, 2-(2-(5-Cyclopropyl-3-(2,6-difluorophenyl)isoxazol-4-yl)-7-azaspiro[3.5]non-1-en-7-yl)-4-fluorobenzo[d]thiazole-6-carboxylic acid], a half-maximal response (EC50) required 155 nM.

As to `O=C(O)c1cc(F)c2nc(N3CCC4(C=C(c5c(-c6cccnc6C(F)(F)F)noc5C5CC5)C4)CC3)sc2c1` [Example 138, 2-(2-(5-Cyclopropyl-3-(2-(trifluoromethyl)pyridin-3-yl)isoxazol-4-yl)-7-azaspiro[3.5]non-1-en-7-yl)-4-fluorobenzo[d]thiazole-6-carboxylic acid], the EC50 was 319 nM.

On to `O=C(O)c1cc(F)c2nc(N3CCC4(C=C(c5c(-c6cnccc6C(F)(F)F)noc5C5CC5)C4)CC3)sc2c1` [Example 139, 2-(2-(5-Cyclopropyl-3-(4-(trifluoromethyl)pyridin-3-yl)isoxazol-4-yl)-7-azaspiro[3.5]non-1-en-7-yl)-4-fluorobenzo[d]thiazole-6-carboxylic acid], for which the EC50 was determined as 482 nM. Against the preceding compound, the EC50 is about 1.5-fold higher.

Compound `O=C(O)c1ccc2nc(N3CCC4(C=C(c5c(-c6ccccc6OC(F)(F)F)noc5C5CC5)C4)CC3)ccc2c1` [Example 140, 2-(2-(5-Cyclopropyl-3-(2-(trifluoromethoxy)phenyl)isoxazol-4-yl)-7-azaspiro[3.5]non-1-en-7-yl)quinoline-6-carboxylic acid] came in with an EC50 of 133 nM.

`Cn1cc(C(=O)O)c2ccc(N3CCC4(C=C(c5c(-c6ccccc6C(F)(F)F)noc5C5CC5)C4)CC3)cc21` [Example 141, 6-(2-(5-Cyclopropyl-3-(2-(trifluoromethyl)phenyl)isoxazol-4-yl)-7-azaspiro[3.5]non-1-en-7-yl)-1-methyl-1H-indole-3-carboxylic acid] yielded an EC50 of 142 nM.

Compound `O=C(O)c1cc(OCCO)c2cc(N3CCC4(C=C(c5c(-c6c(Cl)cncc6Cl)noc5C5CC5)C4)CC3)ccc2n1` [Example 142, 6-(2-(5-Cyclopropyl-3-(3,5-dichloropyridin-4-yl)isoxazol-4-yl)-7-azaspiro[3.5]non-1-en-7-yl)-4-(2-hydroxyethoxy)quinoline-2-carboxylic acid] returned an EC50 of 147 nM. This EC50 and that of the compound before are within 1.5-fold of each other.

`O=C(O)c1cc(OCCO)c2cc(N3CCC4(C=C(c5c(-c6ccccc6C(F)(F)F)noc5C5CC5)C4)CC3)ccc2n1` [Example 143, 6-(2-(5-Cyclopropyl-3-(2-(trifluoromethyl)phenyl)isoxazol-4-yl)-7-azaspiro[3.5]non-1-en-7-yl)-4-(2-hydroxyethoxy)quinoline-2-carboxylic acid] registered an EC50 of 159 nM.

Take `COc1cc(C(=O)O)nc2ccc(N3CCC4(C=C(c5c(-c6cccnc6C(F)(F)F)noc5C5CC5)C4)CC3)cc12` [Example 144, 6-(2-(5-Cyclopropyl-3-(2-(trifluoromethyl)pyridin-3-yl)isoxazol-4-yl)-7-azaspiro[3.5]non-1-en-7-yl)-4-methoxyquinoline-2-carboxylic acid]: the response was half-maximal at 156 nM (EC50).

Compound `COc1cc(C(=O)O)nc2ccc(N3CCC4(C=C(c5c(-c6ncccc6Cl)noc5C5CC5)C4)CC3)cc12` [Example 145, 6-(2-(3-(3-Chloropyridin-2-yl)-5-cyclopropylisoxazol-4-yl)-7-azaspiro[3.5]non-1-en-7-yl)-4-methoxyquinoline-2-carboxylic acid] returned a concentration for a half-maximal effect (EC50) of 160 nM.

Compound `COc1cc(C(=O)O)nc2ccc(N3CCC4(C=C(c5c(-c6cnccc6C(F)(F)F)noc5C5CC5)C4)CC3)cc12` [Example 146, 6-(2-(5-Cyclopropyl-3-(4-(trifluoromethyl)pyridin-3-yl)isoxazol-4-yl)-7-azaspiro[3.5]non-1-en-7-yl)-4-methoxyquinoline-2-carboxylic acid] registered a concentration for a half-maximal effect (EC50) of 185 nM.

Turning to `COc1cc(C(=O)O)nc2ccc(N3CCC4(C=C(c5c(C6CCCCC6)noc5C5CC5)C4)CC3)cc12` [Example 147, 6-(2-(3-Cyclohexyl-5-cyclopropylisoxazol-4-yl)-7-azaspiro[3.5]non-1-en-7-yl)-4-methoxyquinoline-2-carboxylic acid], the EC50 is 1060 nM.

Take `CC(C)c1onc(-c2c(Cl)cccc2Cl)c1C1=CC2(CCN(c3ccc4cc(C(=O)O)nnc4c3)CC2)C1` [Example 148, 7-(2-(3-(2,6-Dichlorophenyl)-5-isopropylisoxazol-4-yl)-7-azaspiro[3.5]non-1-en-7-yl) cinnoline-3-carboxylic acid]: the EC50 worked out at 548 nM.

As to `O=C(O)c1ccc2cc(N3CCC4(C=C(c5c(-c6ccncc6Cl)noc5C5CC5)C4)CC3)ccc2n1` [Example 150, 6-(2-(3-(3-Chloropyridin-4-yl)-5-cyclopropylisoxazol-4-yl)-7-azaspiro[3.5]non-1-en-7-yl)quinoline-2-carboxylic acid], the EC50 is 4350 nM.

As for `O=C(O)c1ccc2cc(N3CCC4(C=C(c5c(-c6c(F)cccc6F)noc5C5CC5)C4)CC3)ccc2n1` [Example 151, 6-(2-(5-Cyclopropyl-3-(2,6-difluorophenyl)isoxazol-4-yl)-7-azaspiro[3.5]non-1-en-7-yl)quinoline-2-carboxylic acid], the response was half-maximal at 1990 nM (EC50). Compared with the last compound, the EC50 is about 2.2-fold lower.

`O=C(O)c1ccc2cc(N3CCC4(C=C(c5c(-c6ncccc6Cl)noc5C5CC5)C4)CC3)ccc2n1` [Example 152, 6-(2-(3-(3-Chloropyridin-2-yl)-5-cyclopropylisoxazol-4-yl)-7-azaspiro[3.5]non-1-en-7-yl)quinoline-2-carboxylic acid] yielded a concentration for a half-maximal effect (EC50) of 1630 nM.

`O=C(O)c1ccc2cc(N3CCC4(C=C(c5c(-c6cccnc6C(F)(F)F)noc5C5CC5)C4)CC3)ccc2n1` [Example 153, 6-(2-(5-Cyclopropyl-3-(2-(trifluoromethyl)pyridin-3-yl)isoxazol-4-yl)-7-azaspiro[3.5]non-1-en-7-yl)quinoline-2-carboxylic acid] yielded an EC50 of 1280 nM.
